Values of other authors in patent publication US9572826B2, “Compositions for the treatment of hair loss” (priority 2008, dated 2017).

Assays:
alopecia areata = conditions: intralesional injection
hair loss = conditions: human, in vivo

## CC(C)(C)CC(=O)OCC(=O)[C@@]12OC(C)(C)O[C@@H]1C[C@H]1[C@@H]3CCC4=CC(=O)C=C[C@]4(C)[C@@]3(F)[C@@H](O)C[C@@]12C [triamcinolone hexacetonide]
Alopecia areata
  injected sites with hair regrowth: 33 out of 34

## CC(C)(C)NC(=O)[C@H]1CC[C@H]2[C@@H]3CC[C@H]4NC(=O)C=C[C@]4(C)[C@H]3CC[C@]12C [Finasteride]
Hair loss
  patients in whom effective: approximately 50%
  side effects reported: erectile dysfunction and gynecomastica
